Laboratory results taken from patent EP1357114A1, “Substituted pyrimidin-2,4(1H,3H)-diones as inhibitors of Matrix Metalloproteinases (MMP)” (IBFB GmbH Privates Institut für biomedizinische Forschung …, priority 2002, dated 2003).

Tests used:
[1] = molecular target: T1, katalytische Domäne der MMP-8 (Homo sapiens, UniProt P22894); experiment: Quantitative fluorescence assay for matrix metalloproteinases (cleavage of Mca-Pro-Leu-Gly-Leu-Dpa-Ala-Arg-NH2); format: biochemical
T1 construct: dass wir statt des Gesamtenzyms nur dessen enzymatisch aktive katalytische Domäne in E. coli klonierten; made in house; host or cells: E. coli
Text: Die Nutzung der katalytischen Domäne der MMP-8 als weiteres Testenzym wurde deshalb gewählt, weil es eine hohe Stabilität besitzt und darüber hinaus als aktives Enzym vorliegt. Es muß deshalb nicht aktiviert werden, was eine der häufigsten Fehlerursachen darstellt, da die zur Aktivierung genutzten Quecksilberverbindungen häufig mit dem Testsystem bzw. dem Enzym interferieren und dadurch die Messergebnisse verfälschen werden. Die Klonierungsstrategie gestalteten wir so, dass wir statt des Gesamtenzyms nur dessen enzymatisch aktive katalytische Domäne in E. coli klonierten. Mit der konstruierten katalytischen Domäne der MMP-8 erzielten wir ein stabiles, enzymatisch aktives und hochreines Enzym, welches für die Routineuntersuchungen der inhibitorischen Aktivität der synthetisierten Inhibitoren sehr gut geeignet war und die Messergebnisse der einzelnen Messserien miteinander vergleichbar machte. Die Klonierung und Expression der katalytischen Domäne der MMP-8 wurde entsprechend den Angaben von SCHNIERER et al. (Schnierer S, Kleine T, Gote T, Hillemann A, Knäuper V, Tschesche H: The recombinant catalytic domain of human neutrophil collagenase lacks type I collagen substrate specificity. Biochem Biophys Res Comm (1993) vol. 191 No. 2, 319-326) durchgeführt.
(§1) Durch enzymatische Spaltung des synthetischen Substrates Mca-Pro-Leu-Gly-Leu-Dpa-Ala-Arg-NH2 durch die jeweilige Kollagenase, wird die fluoreszente Gruppe Mca ((7-Methoxycoumarin-4-yl)acetyl) vom internen Quencher Dpa ((N-3-(2,4-dinitrophenyl)-L-2,3-diaminopropienyl) getrennt. Dabei erfolgt eine starke Zunahme der Fluoreszenz im Messansatz, die am Fluorimeter quantifiziert werden kann (λex 328 nm, λem 393 nm) und innerhalb der ersten Minuten linear verläuft. Eine gewisse Spezifität des Tests für Matrix-Metalloproteinasen ergibt sich einerseits aus der Aminosäuresequenz -Pro-Leu-Gly-Leu- im Substrat und andererseits durch die gewählten Inkubationsbedingungen. Matrix-Metalloproteinasen spalten das Substrat an der Bindung Gly-Leu. Gemessen wird die proteolytische Restaktivität vorinkubierter Ansätze von Enzym und Inhibitor, wobei die Substrat- und Enzymkonzentration konstant gehalten und die Inhibitorkonzentration variiert wurde. Es wurden für jeden getesteten Inhibitor drei Messreihen mit unterschiedlicher Substratkonzentration aufgenommen. Aus der zeitabhängigen Fluoreszenzzunahme wird die Enzymaktivität in Fluoreszenzeinheiten pro min berechnet. Die Bestimmung der Ki-Werte erfolgte graphisch nach der Methode von DIXON (1953) durch Auftragung der reziproken Reaktionsgeschwindigkeit 1/v (y-Achse) gegen Inhibitorkonzentration (x-Achse).
(§2) 1984 µl Messpuffer (100mM Tris-HCI pH 7,5, 100 mM NaCI, 10 mM CaCl2, 0,05% Brij 35 bzw. 50 mM MES-NaOH, pH 6.0, 10 mM CaCl2, 100 mM NaCI, 0.05% Brij 35 im Fall der KaDo MMP-3) 2 µl Inhibitor, gelöst in DMSO, bzw. DMSO allein (nichtinhibierender Ansatz) 4 µl Enzym • 5 min. Vorinkubation des Enzym-Inhibitor-Gemischs bei Raumtemperatur unter Rühren • Start der Reaktion mit 10 µl Substrat gelöst in DMSO • Aufzeichnung der zeitabhängigen Fluoreszenzzunahme über 2 - 10 min.

MMP-9 = molecular target: T2, MMP-9 (Homo sapiens, UniProt P14780); experiment: as above; format: biochemical; settings: bei 10 µM
T2 construct: Das latente Enzym wird durch 30 - 60 min; Inkubation bei 37°C mit 1/100 Vol. Trypsin (10 mg/ml) aktiviert; from tissue; host or cells: human buffy coat (blood leukocytes)
Protocol: Native MMP-9 wurde reproduzierbar und in guter Ausbeute und Reinheit aus humanem Buffy Coat gewonnen. Hierzu wird Buffy Coat mit 10% (v/v) Triton X-100 auf eine Endkonzentration von 0,4% gebracht, 30 min. auf Eis geschüttelt und dann 1 Vol. 2-fach Bindungspuffer (40 mM Tris-HCI pH 7,5, 10 mM CaCl2, 1 M NaCI, 0,2% (v/v) Triton X-100) hinzugefügt und weitere 30 min. auf Eis geschüttelt. Die Lösung wird 15 min. bei 16 000 Upm an einem SS-34 Rotor bei 4°C abzentrifugiert und über Glaswolle filtriert. Das Filtrat wird mit Gelatine-Agarose, welche mit Bindungspuffer äquilibriert wurde, gebatcht und 1 Std. auf Eis geschüttelt. Die beladene Gelatine-Agarose wird in eine Säule überführt und mit mindestens 10 Vol. Bindungspuffer proteinfrei gespült. Die Elution der gebundenen MMP-9 erfolgt mit 2 Gelvolumen Bindungspuffer plus 5% (v/v) DMSO. Das Eluat kann zum Puffer-Austausch und gleichzeitiger Abtrennung geringer Verunreinigungen an MMP-2 über eine Gelfiltration an Sephadex G-75 aufgetrennt werden. Hierzu wird der Puffer I (20 mM Tris-HCI pH 7,5, 5 mM CaCl2, 100 mM NaCI, 0,1% (v/v) Triton X-100) verwendet. Das so gewonnene Eluat enthällt MMP-9 in den drei bekannten Zustandsformen: Monomer, Homodimer, Heterodimer. Die Reinheit des Enzyms beträgt ca. 90%, wobei die restlichen Fremdproteine Fibronektin und äußerst geringe Mengen an TIMP's sind. Das latente Enzym wird durch 30 - 60 min. Inkubation bei 37°C mit 1/100 Vol. Trypsin (10 mg/ml) aktiviert. Trypsin wird durch Zugabe von 1 mM PMSF oder mit einem spezifischen Inhibitor (TKI) gehemmt.
as §1, §2

T1 sequence (P22894 100-262 limits assumed): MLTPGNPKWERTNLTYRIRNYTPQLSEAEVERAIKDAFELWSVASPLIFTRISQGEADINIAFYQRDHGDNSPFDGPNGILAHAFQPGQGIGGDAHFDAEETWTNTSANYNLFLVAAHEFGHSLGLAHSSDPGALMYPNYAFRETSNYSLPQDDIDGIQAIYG
T2 sequence (P14780 107-707 limits assumed): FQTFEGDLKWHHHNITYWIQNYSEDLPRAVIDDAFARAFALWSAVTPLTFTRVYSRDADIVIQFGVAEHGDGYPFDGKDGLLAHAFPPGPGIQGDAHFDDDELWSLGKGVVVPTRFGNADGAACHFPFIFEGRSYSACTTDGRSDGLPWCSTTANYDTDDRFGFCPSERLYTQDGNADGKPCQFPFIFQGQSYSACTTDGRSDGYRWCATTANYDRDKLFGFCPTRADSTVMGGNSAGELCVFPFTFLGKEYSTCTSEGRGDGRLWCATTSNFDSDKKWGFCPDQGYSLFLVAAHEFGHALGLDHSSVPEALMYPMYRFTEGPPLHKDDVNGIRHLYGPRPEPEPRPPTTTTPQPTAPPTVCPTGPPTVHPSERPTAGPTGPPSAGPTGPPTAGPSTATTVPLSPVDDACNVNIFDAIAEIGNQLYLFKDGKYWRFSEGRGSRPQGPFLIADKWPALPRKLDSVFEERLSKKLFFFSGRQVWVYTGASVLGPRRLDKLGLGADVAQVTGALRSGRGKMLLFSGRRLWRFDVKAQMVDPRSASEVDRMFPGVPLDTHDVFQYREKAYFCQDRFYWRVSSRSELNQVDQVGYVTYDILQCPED

## Cc1cccc2c(=O)n(CC(S)CS)c(=O)[nH]c12 (racemic) [Beispiel 6, (R,S)-3-(2,3-Dimercaptopropyl)-8-methyl-chinazolin-2,4-(1H,3H)dion]
[1]; bei 10 µM
  MMP-8 Hemmung: 43% Hemmung bei 10 µM
MMP-9
  MMP-9 Hemmung: 55% Hemmung bei 10 µM

## CC(S)(CS)Cn1c(=O)[nH]c2ccccc2c1=O (racemic) [Beispiel 2, (R,S)-3-(2,3-Dimercapto-2-methylpropyl)chinazolin-2,4-(1H,3H)dion]
[1]; Dixon plot
  Ki: 60 µM
MMP-9
  MMP-9 Hemmung: 10% Hemmung bei 10 µM
